13 compounds from PubChem BioAssay (NCI) can be followed below.

Molecules are shown by their SMILES.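 These data come from cells grown in 96-well plates and exposed to compound for 48 hours at five concentrations. Abbreviation: GI50, concentration required for 50% inhibition of growth. TGI marks complete inhibition of growth.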 Where a SMILES comes first, the peptide text is derived from it. [ ]: non-standard residue; d: D form. The star is where a group is joined. mTyr = N[CH](Cc1cccc(O)c1)C(=O)O; Cbz = O=C(OCc1ccccc1)*; OBn = c1ccc(CO*)cc1 Some results are limits rather than exact numbers.

Test systems include SK-MEL-5 melanoma; ACHN renal; SNB-75 CNS; CAKI-1 renal; EKVX NSCLC; SK-OV-3 ovarian; OVCAR-8 ovarian; UACC-257 melanoma; SF-268 CNS; NCI-H226 lung.
Holding throughout (assay): inhibition of tumour cell growth, NCI panel, 48 h

For the compound `Cc1ccc(N=Nc2c(O)c(C(=O)Nc3ccccc3)cc3ccccc23)c([N+](=O)[O-])c1`, the TGI in the assay on SK-MEL-5 melanoma, in the assay on ACHN renal, in the assay with SNB-75 CNS, in the assay with CAKI-1 renal, in the assay on EKVX NSCLC and in the assay on SK-OV-3 ovarian was greater than 100 µM each time. The TGI in the assay on OVCAR-8 ovarian, in the assay with UACC-257 melanoma and in the assay with SF-268 CNS was greater than 100 µM each time.

Regarding `CN(CCCNC(=O)c1nn(-c2ccc(Cl)cc2Cl)c2c1Cc1ccccc1-2)CCCNC(=O)c1nn(-c2ccc(Cl)cc2Cl)c2c1Cc1ccccc1-2`, the TGI with SK-MEL-5 melanoma was 3.05 µM; with SNB-75 CNS, 2.92 µM; in the assay on CAKI-1 renal, 2.95 µM; in the assay with EKVX NSCLC, 3.26 µM; with SK-OV-3 ovarian, 3.06 µM; in the assay on OVCAR-8 ovarian, 3.46 µM. The compound also returned a TGI with UACC-257 melanoma of 3.35 µM.

As for `O[C@H]1[C@H](O)[C@@H](O)[C@@]2(O)C[C@@H](O)[C@@H]1N2`, the TGI with SK-MEL-5 melanoma, with ACHN renal, in the assay on SNB-75 CNS, with NCI-H226 lung, with EKVX NSCLC and in the assay on SK-OV-3 ovarian was greater than 100 µM each time. The TGI in the assay on OVCAR-8 ovarian, in the assay with UACC-257 melanoma and in the assay with SF-268 CNS was greater than 100 µM throughout.

On to `CCNC1=C(NC(=O)CC)C(=O)c2ccccc2C1=O`, for which the TGI in the assay on SK-MEL-5 melanoma, in the assay with ACHN renal, in the assay with SNB-75 CNS, in the assay with NCI-H226 lung, in the assay on EKVX NSCLC and with SK-OV-3 ovarian was greater than 100 µM in each case. Further, the TGI in the assay on OVCAR-8 ovarian, with UACC-257 melanoma and in the assay on SF-268 CNS was greater than 100 µM in each case.

On to `O=C(N/N=C/c1cc(Cl)cc(Cl)c1O)c1ccccc1O`, for which the TGI with SK-MEL-5 melanoma was 5.38 µM; in the assay on ACHN renal, 5.57 µM; in the assay with SNB-75 CNS, 22.5 µM; with EKVX NSCLC, greater than 100 µM; in the assay with SK-OV-3 ovarian, 15.3 µM; with OVCAR-8 ovarian, 13.9 µM. Moreover, the figures for the TGI with UACC-257 melanoma and in the assay on SF-268 CNS were 14.6 µM and 30.8 µM, respectively. In the assay with EKVX NSCLC, the GI50 was 1.71 µM.

Take `O=C(Nc1cccc(F)c1)c1cc2ccc(O)cc2oc1=Nc1ccccc1F`: the TGI with SK-MEL-5 melanoma is 9.57 µM; in the assay on ACHN renal it was 14.2 µM; with CAKI-1 renal, 15 µM; in the assay with EKVX NSCLC, 6.17 µM; with SK-OV-3 ovarian, 15.9 µM; in the assay on OVCAR-8 ovarian, 5.85 µM. Further, the results for the TGI in the assay on UACC-257 melanoma and in the assay on SF-268 CNS were 31.1 µM and 15.4 µM, respectively.

For `c1ccc(CSCCc2ccncc2)cc1`, the TGI with SK-MEL-5 melanoma, with ACHN renal, in the assay with NCI-H226 lung, in the assay on EKVX NSCLC, with SK-OV-3 ovarian and in the assay with OVCAR-8 ovarian was greater than 100 µM in each case. Further, the TGI with UACC-257 melanoma and in the assay on SF-268 CNS was greater than 100 µM each time.

For `CCOC(=O)CSc1nnc(C(Sc2nc(-c3ccccc3)c(-c3ccccc3)[nH]2)C(C)C)n1-c1ccccc1` (stereo unspecified), the TGI is greater than 10 µM in the assay with SK-MEL-5 melanoma; greater than 31.6 µM in the assay with ACHN renal; greater than 10 µM with SNB-75 CNS; 26 µM in the assay on NCI-H226 lung; greater than 31.6 µM in the assay on EKVX NSCLC; greater than 10 µM with SK-OV-3 ovarian. Moreover, the TGI with OVCAR-8 ovarian was greater than 31.6 µM; in the assay on UACC-257 melanoma it was 19.3 µM; in the assay with SF-268 CNS, greater than 31.6 µM.

In the case of `COC(=O)CC1NC(=O)C1C1(C)OCCO1` (stereo unspecified), the TGI in the assay with SK-MEL-5 melanoma was greater than 100 µM; with ACHN renal, greater than 100 µM; with SNB-75 CNS, 97.7 µM; with NCI-H226 lung, greater than 100 µM; in the assay with EKVX NSCLC, greater than 100 µM; with OVCAR-8 ovarian, greater than 100 µM. For the same compound, the TGI in the assay with UACC-257 melanoma and in the assay with SF-268 CNS was greater than 100 µM throughout.

As to `O=C(CSC1=NCCN1)Nc1ccccc1`, the TGI with ACHN renal was 53.8 µM; in the assay on SNB-75 CNS, 43.5 µM; in the assay on CAKI-1 renal, greater than 100 µM; in the assay on EKVX NSCLC, greater than 100 µM; in the assay with OVCAR-8 ovarian, greater than 100 µM; in the assay with UACC-257 melanoma it was 40.2 µM. The compound further showed a TGI with SF-268 CNS of 93.3 µM.

For the compound `CCCc1ccc(NCc2cc(OC)c(OC)c(OC)c2)cc1`, the TGI is 32.5 µM in the assay with SK-MEL-5 melanoma; greater than 100 µM in the assay on ACHN renal; 94.8 µM in the assay with SNB-75 CNS; greater than 100 µM with EKVX NSCLC; 66.3 µM in the assay with SK-OV-3 ovarian; greater than 100 µM in the assay with OVCAR-8 ovarian. For the same compound, the TGI stood at 74.7 µM in the assay on UACC-257 melanoma and 79.2 µM in the assay on SF-268 CNS.

In the case of `COC(=O)C(Cc1cccc(O)c1)NC(=O)C(CC(=O)OCc1ccccc1)NC(=O)OCc1ccccc1` (stereo unspecified) (Cbz-Asp(OBn)-[mTyr]-OMe; configuration not given here), the TGI with SK-MEL-5 melanoma, in the assay with ACHN renal, in the assay with SNB-75 CNS, in the assay with NCI-H226 lung, in the assay on EKVX NSCLC and with OVCAR-8 ovarian was greater than 100 µM throughout. The TGI in the assay on UACC-257 melanoma is greater than 100 µM.

For `O=C(CC(=O)Nc1ccccc1)N/N=C/c1cc(N=Nc2ccc(Br)cc2)ccc1O`, the TGI in the assay on SK-MEL-5 melanoma, with SNB-75 CNS, with CAKI-1 renal, with EKVX NSCLC, in the assay on SK-OV-3 ovarian and in the assay with OVCAR-8 ovarian was greater than 10 µM in each case. In addition, the values for the TGI in the assay with UACC-257 melanoma and in the assay on SF-268 CNS were 7.71 µM and greater than 10 µM, respectively.
